Where a SMILES comes first, the peptide text is derived from it. Bridges are numbered along the chain shown (N, C = ends). [ ]: non-standard residue; d: D form. hArg = N=C(N)NCCCC[C@H](N)C(=O)O; Agb = N=C(N)NCC[C@H](N)C(=O)O; Orn = NCCC[C@H](N)C(=O)O
Target: T1, Coagulation factor XII (Homo sapiens, UniProt P00748)
T1 sequence (P00748 whole entry): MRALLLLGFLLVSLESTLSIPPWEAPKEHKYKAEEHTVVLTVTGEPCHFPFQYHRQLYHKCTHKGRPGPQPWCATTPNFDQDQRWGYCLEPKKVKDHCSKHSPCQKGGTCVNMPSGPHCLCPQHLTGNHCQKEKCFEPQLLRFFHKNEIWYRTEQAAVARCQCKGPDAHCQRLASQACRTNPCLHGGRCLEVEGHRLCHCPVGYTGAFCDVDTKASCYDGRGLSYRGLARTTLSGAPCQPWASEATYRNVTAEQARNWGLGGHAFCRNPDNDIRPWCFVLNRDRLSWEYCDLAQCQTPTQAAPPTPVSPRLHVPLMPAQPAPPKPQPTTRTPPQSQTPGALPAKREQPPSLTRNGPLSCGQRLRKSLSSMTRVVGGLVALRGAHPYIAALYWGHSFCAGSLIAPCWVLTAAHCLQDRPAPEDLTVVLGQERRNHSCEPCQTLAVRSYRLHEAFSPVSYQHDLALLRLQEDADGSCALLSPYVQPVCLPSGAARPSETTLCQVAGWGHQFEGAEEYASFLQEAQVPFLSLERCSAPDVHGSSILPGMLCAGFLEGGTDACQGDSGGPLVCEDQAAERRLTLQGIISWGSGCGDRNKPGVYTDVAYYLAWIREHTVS
Experiment: Inhibition of human factor 12a using H-D-Pro-Phe-Arg-p-nitroanilide as chromogenic substrate assessed as liberation of p-nitroaniline measured every 5 mins for 60 min by multimode plate reader analysis

| IC50 | Structure (SMILES) |
| --- | --- |
| 0.3 µM | CC(C)C[C@@H]1NC(=O)[C@H](Cc2ccc(O)cc2)NC(=O)CSC[C@@H](C(N)=O)NC(=O)CNC(=O)CNC(=O)[C@H](CCCNC(=N)N)NC(=O)[C@H](CC(=O)O)NC(=O)[C@H](CCCCN)NC(=O)[C@@H]2CCCN2C(=O)[C@H](CCCNC(=N)N)NC(=O)[C@H](Cc2ccccc2)NC(=O)[C@H](CCCCN)NC1=O ({CH2CO}-YLKFRPKDRGGC-NH2; thioether N-12) |
| 13 µM | CC(C)C[C@@H]1NC(=O)[C@H](Cc2ccc(O)cc2)NC(=O)CSC[C@@H](C(N)=O)NC(=O)CNC(=O)CNC(=O)[C@H](CCC(N)=O)NC(=O)[C@H](CC(N)=O)NC(=O)[C@H]([C@@H](C)O)NC(=O)[C@@H]2CCCN2C(=O)[C@H](CCCCN)NC(=O)[C@H](C)NC(=O)[C@H](CCCNC(=N)N)NC1=O ({CH2CO}-YLRAKPTNQGGC-NH2; thioether N-12) |
| 5.1 µM | CC(C)C[C@@H]1NC(=O)[C@H](Cc2ccc(O)cc2)NC(=O)CSC[C@@H](C(N)=O)NC(=O)CNC(=O)CNC(=O)[C@H](CCCNC(=N)N)NC(=O)[C@H](CC(=O)O)NC(=O)[C@H](CCCCN)NC(=O)[C@@H]2CCCN2C(=O)[C@H](CCCNC(=N)N)NC(=O)[C@H](C)NC(=O)[C@H](CCCNC(=N)N)NC1=O ({CH2CO}-YLRARPKDRGGC-NH2; thioether N-12) |
| 79 µM | CC(C)C[C@@H]1NC(=O)[C@H](Cc2ccc(O)cc2)NC(=O)CSC[C@@H](C(N)=O)NC(=O)CNC(=O)CNC(=O)[C@H](CCCNC(=N)N)NC(=O)[C@H](CC(=O)O)NC(=O)[C@H](CCCCN)NC(=O)[C@@H]2CCCN2C(=O)[C@H](C)NC(=O)[C@H](Cc2ccccc2)NC(=O)[C@H](CCCNC(=N)N)NC1=O ({CH2CO}-YLRFAPKDRGGC-NH2; thioether N-12) |
| 0.065 µM | CC(C)C[C@@H]1NC(=O)[C@H](Cc2ccc(O)cc2)NC(=O)CSC[C@@H](C(N)=O)NC(=O)CNC(=O)CNC(=O)[C@H](CCCNC(=N)N)NC(=O)[C@H](CC(=O)O)NC(=O)[C@H](CCCCN)NC(=O)[C@@H]2CCCN2C(=O)[C@H](CCCCN)NC(=O)[C@H](Cc2ccccc2)NC(=O)[C@H](CCCNC(=N)N)NC1=O ({CH2CO}-YLRFKPKDRGGC-NH2; thioether N-12) |
| 0.26 µM | CC(C)C[C@@H]1NC(=O)[C@H](Cc2ccc(O)cc2)NC(=O)CSC[C@@H](C(N)=O)NC(=O)CNC(=O)CNC(=O)[C@H](CCCNC(=N)N)NC(=O)[C@H](CC(=O)O)NC(=O)[C@H](CCCCN)NC(=O)[C@H](C)NC(=O)[C@H](CCCNC(=N)N)NC(=O)[C@H](Cc2ccccc2)NC(=O)[C@H](CCCNC(=N)N)NC1=O ({CH2CO}-YLRFRAKDRGGC-NH2; thioether N-12) |
| 200 µM | CC(C)C[C@@H]1NC(=O)[C@H](Cc2ccc(O)cc2)NC(=O)CSC[C@@H](C(N)=O)NC(=O)[C@H](CCCNC(=N)N)NC(=O)[C@H](Cc2ccccc2)NC(=O)[C@H](CCCNC(=N)N)NC1=O ({CH2CO}-YLRFRC-NH2; thioether N-6) |
| 0.4 µM | CC(C)C[C@@H]1NC(=O)[C@H](Cc2ccc(O)cc2)NC(=O)CSC[C@@H](C(N)=O)NC(=O)CNC(=O)CNC(=O)[C@H](CCCNC(=N)N)NC(=O)[C@H](CC(=O)O)NC(=O)[C@H](C)NC(=O)[C@@H]2CCCN2C(=O)[C@H](CCCNC(=N)N)NC(=O)[C@H](Cc2ccccc2)NC(=O)[C@H](CCCNC(=N)N)NC1=O ({CH2CO}-YLRFRPADRGGC-NH2; thioether N-12) |
| 0.05 µM | CC(C)C[C@@H]1NC(=O)[C@H](Cc2ccc(O)cc2)NC(=O)CSC[C@@H](C(N)=O)NC(=O)CNC(=O)CNC(=O)[C@H](CCCNC(=N)N)NC(=O)[C@H](C)NC(=O)[C@H](CCCCN)NC(=O)[C@@H]2CCCN2C(=O)[C@H](CCCNC(=N)N)NC(=O)[C@H](Cc2ccccc2)NC(=O)[C@H](CCCNC(=N)N)NC1=O ({CH2CO}-YLRFRPKARGGC-NH2; thioether N-12) |
| 0.65 µM | CC(C)C[C@@H]1NC(=O)[C@H](Cc2ccc(O)cc2)NC(=O)CSC[C@@H](C(N)=O)NC(=O)CNC(=O)CNC(=O)[C@H](C)NC(=O)[C@H](CC(=O)O)NC(=O)[C@H](CCCCN)NC(=O)[C@@H]2CCCN2C(=O)[C@H](CCCNC(=N)N)NC(=O)[C@H](Cc2ccccc2)NC(=O)[C@H](CCCNC(=N)N)NC1=O ({CH2CO}-YLRFRPKDAGGC-NH2; thioether N-12) |
| 27 µM | CC(C)C[C@@H]1NC(=O)[C@H](Cc2ccc(O)cc2)NC(=O)CSC[C@@H](C(N)=O)NC(=O)CNC(=O)[C@H](C)NC(=O)[C@H](CCCNC(=N)N)NC(=O)[C@H](CC(=O)O)NC(=O)[C@H](CCCCN)NC(=O)[C@@H]2CCCN2C(=O)[C@H](CCCNC(=N)N)NC(=O)[C@H](Cc2ccccc2)NC(=O)[C@H](CCCNC(=N)N)NC1=O ({CH2CO}-YLRFRPKDRAGC-NH2; thioether N-12) |
| 15 µM | CC(C)C[C@@H]1NC(=O)[C@H](Cc2ccc(O)cc2)NC(=O)CSC[C@@H](C(N)=O)NC(=O)[C@H](C)NC(=O)CNC(=O)[C@H](CCCNC(=N)N)NC(=O)[C@H](CC(=O)O)NC(=O)[C@H](CCCCN)NC(=O)[C@@H]2CCCN2C(=O)[C@H](CCCNC(=N)N)NC(=O)[C@H](Cc2ccccc2)NC(=O)[C@H](CCCNC(=N)N)NC1=O ({CH2CO}-YLRFRPKDRGAC-NH2; thioether N-12) |
| 3.3 µM | CC(C)C[C@@H]1NC(=O)[C@H](Cc2ccc(O)cc2)NC(=O)CSC[C@@H](C(N)=O)NC(=O)CNC(=O)CNC(=O)[C@H](CCCNC(=N)N)NC(=O)[C@H](CC(=O)O)NC(=O)[C@H](CCCCN)NC(=O)[C@@H]2CCCN2C(=O)[C@H](CCNC(=N)N)NC(=O)[C@H](Cc2ccccc2)NC(=O)[C@H](CCCNC(=N)N)NC1=O ({CH2CO}-YLRF[Agb]PKDRGGC-NH2; thioether N-12) |
| 2.1 µM | CC(C)C[C@@H]1NC(=O)[C@H](Cc2ccc(O)cc2)NC(=O)CSC[C@@H](C(N)=O)NC(=O)CNC(=O)CNC(=O)[C@H](CCCNC(=N)N)NC(=O)[C@H](CC(=O)O)NC(=O)[C@H](CCCCN)NC(=O)[C@@H]2CCCN2C(=O)[C@H](CCCN)NC(=O)[C@H](Cc2ccccc2)NC(=O)[C@H](CCCNC(=N)N)NC1=O ({CH2CO}-YLRF[Orn]PKDRGGC-NH2; thioether N-12) |
| 0.47 µM | CC(C)C[C@@H]1NC(=O)[C@H](Cc2ccc(O)cc2)NC(=O)CSC[C@@H](C(N)=O)NC(=O)CNC(=O)CNC(=O)[C@H](CCCNC(=N)N)NC(=O)[C@H](CC(=O)O)NC(=O)[C@H](CCCCN)NC(=O)[C@@H]2CCCN2C(=O)[C@H](CCCCNC(=N)N)NC(=O)[C@H](Cc2ccccc2)NC(=O)[C@H](CCCNC(=N)N)NC1=O ({CH2CO}-YLRF[hArg]PKDRGGC-NH2; thioether N-12) |
| 60 µM | CC(C)C[C@@H]1NC(=O)[C@H](CCCNC(=N)N)NC(=O)[C@H](CC(C)C)NC(=O)[C@H](Cc2ccc(O)cc2)NC(=O)CSC[C@@H](C(N)=O)NC(=O)CNC(=O)CNC(=O)[C@H](CCC(N)=O)NC(=O)[C@H](CC(N)=O)NC(=O)[C@H]([C@@H](C)O)NC(=O)[C@@H]2CCCN2C(=O)[C@H](C)NC1=O ({CH2CO}-YLRLAPTNQGGC-NH2; thioether N-12) |
| 2.3 µM | CC(C)C[C@@H]1NC(=O)[C@H](Cc2ccc(O)cc2)NC(=O)CSC[C@@H](C(N)=O)NC(=O)CNC(=O)CNC(=O)[C@H](CCC(N)=O)NC(=O)[C@H](CC(N)=O)NC(=O)[C@H]([C@@H](C)O)NC(=O)[C@H](C)NC(=O)[C@H](CCCCN)NC(=O)[C@H](CC(C)C)NC(=O)[C@H](CCCNC(=N)N)NC1=O ({CH2CO}-YLRLKATNQGGC-NH2; thioether N-12) |
| 0.45 µM | CC(C)C[C@@H]1NC(=O)[C@H](Cc2ccc(O)cc2)NC(=O)CSC[C@@H](C(N)=O)NC(=O)CNC(=O)CNC(=O)[C@H](CCC(N)=O)NC(=O)[C@H](CC(N)=O)NC(=O)[C@H](C)NC(=O)[C@@H]2CCCN2C(=O)[C@H](CCCCN)NC(=O)[C@H](CC(C)C)NC(=O)[C@H](CCCNC(=N)N)NC1=O ({CH2CO}-YLRLKPANQGGC-NH2; thioether N-12) |
| 0.59 µM | CC(C)C[C@@H]1NC(=O)[C@H](Cc2ccc(O)cc2)NC(=O)CSC[C@@H](C(N)=O)NC(=O)CNC(=O)CNC(=O)[C@H](CCC(N)=O)NC(=O)[C@H](C)NC(=O)[C@H]([C@@H](C)O)NC(=O)[C@@H]2CCCN2C(=O)[C@H](CCCCN)NC(=O)[C@H](CC(C)C)NC(=O)[C@H](CCCNC(=N)N)NC1=O ({CH2CO}-YLRLKPTAQGGC-NH2; thioether N-12) |
| 1 µM | CC(C)C[C@@H]1NC(=O)[C@H](Cc2ccc(O)cc2)NC(=O)CSC[C@@H](C(N)=O)NC(=O)CNC(=O)CNC(=O)[C@H](C)NC(=O)[C@H](CC(N)=O)NC(=O)[C@H]([C@@H](C)O)NC(=O)[C@@H]2CCCN2C(=O)[C@H](CCCCN)NC(=O)[C@H](CC(C)C)NC(=O)[C@H](CCCNC(=N)N)NC1=O ({CH2CO}-YLRLKPTNAGGC-NH2; thioether N-12) |
| 21 µM | CC(C)C[C@@H]1NC(=O)[C@H](Cc2ccc(O)cc2)NC(=O)CSC[C@@H](C(N)=O)NC(=O)CNC(=O)[C@H](C)NC(=O)[C@H](CCC(N)=O)NC(=O)[C@H](CC(N)=O)NC(=O)[C@H]([C@@H](C)O)NC(=O)[C@@H]2CCCN2C(=O)[C@H](CCCCN)NC(=O)[C@H](CC(C)C)NC(=O)[C@H](CCCNC(=N)N)NC1=O ({CH2CO}-YLRLKPTNQAGC-NH2; thioether N-12) |
| 73 µM | CC(C)C[C@@H]1NC(=O)[C@H](Cc2ccc(O)cc2)NC(=O)CSC[C@@H](C(N)=O)NC(=O)[C@H](C)NC(=O)CNC(=O)[C@H](CCC(N)=O)NC(=O)[C@H](CC(N)=O)NC(=O)[C@H]([C@@H](C)O)NC(=O)[C@@H]2CCCN2C(=O)[C@H](CCCCN)NC(=O)[C@H](CC(C)C)NC(=O)[C@H](CCCNC(=N)N)NC1=O ({CH2CO}-YLRLKPTNQGAC-NH2; thioether N-12) |
